How the values were obtained:
[1] = cited from earlier work; for Free Cmax highest: Supplementary Table S1
[2] = WHO adverse drug reactions VigiBase; ref Kumlien and Lundberg, 2010; cited from earlier work
[3] = ref National library of medicine, Daylimed; cited from earlier work
[4] = seizure ADR frequency in SIDER; ref Campillos et al., 2008; Kuhn et al., 2010; cited from earlier work
[5] = test system: rat primary cortical neurons; assay: MEA hazard scoring in rat primary cortical neuronal cultures; conditions: statistical tolerance interval of the ΔΔ% effect; One-sided interval
Method: At DIV28, spontaneous neuronal activity obtained for 30 min in culture solution was defined as the baseline.
Data analysis was captured using AxIs suite software (Axion Biosystems Inc., version 3.6.2) and further analyzed using GraphPad Prism (version 9.00; GraphPad Software Inc., San Diego, CA). […] An active well should have more than 40% active electrodes. All wells below this threshold were discarded upon these quality criteria. For the downstream statistical analysis, the data on each MEA parameter was first expressed as the ratio of exposed wells (percentage change between baseline and the treatment) and then normalized to the average of the control within the same plate. i.e., Baseline corrected ratios of n= 7 or eight wells were averaged per condition. Each well of the MEA served as its own control, and the changes in the electrical activity elicited by the treatments were expressed as a percentage of that control activity and normalized to the wells treated with the vehicle control dimethyl sulfoxide (DMSO). […] Differences were determined using the non-parametric Wilcoxon Mann Whitney test; p-values below 0.05 were considered significant. Data are expressed as means ± S.E.M.
Thereafter, based on the effects of vehicles and positive controls, we determined the cut-off points between the different effect zones according to the key parameters selected as described in the previous subsection. The zones were defined as follows. The “no effect” zone reflects parameter changes that are most likely within vehicle variability. The “mild” and “strong” zones are differentiated bidirectionally showing mild and strong effects.
The respective hazard class was determined by a cumulative scoring of individual parameters using a scoring matrix, which was based on the following three fundamental components: (1) selection of the six key relevant parameters, (2) defining the cutoffs for the level of effect, and (3) defining weighted points per parameter for the level of hazard potential. The scoring matrix concluded with the addition of a weighted point algorithm to discriminate distinct degrees of neuronal hazard. […] The weighted points were defined on the importance of a parameter (and the direction of effect), as well as the identification of an expected hazard for different pharmacological modes of action. The overall hazard score is derived from the sum of all weighted parameters, which could be converted into a specific hazard label. The weighted points and total score range associated with the various hazard labels were optimized using an iterative process.

SMILES	Free Cmax highest [1]	Percentage seizures of total number of ADRs [2]	FDA prescription information at therapeutic dose (Convulsion/ Seizure/Lower the seizure threshold/withdrawal) [3]	SIDER ADR on-/off-label [4]	also measured
CC(=O)Nc1ccc(O)cc1 [Acetaminophen]	540 nM	0.4389%	not found on label		
NC12CC3CC(CC(C3)C1)C2 [Amantadine]	2840 nM				
CCN(CC)C(C)C(=O)c1ccccc1 (stereo not shown) [Amfepramone]	90 nM				
Clc1ccc2c(c1)C(N1CCNCC1)=Nc1ccccc1O2 [Amoxapine]	10 nM	4.864%	on label	no frequency information	
CC1(C)S[C@@H]2[C@H](NC(=O)[C@H](N)c3ccc(O)cc3)C(=O)N2[C@H]1C(=O)O [Amoxicillin]	25830 nM	0.1648%	on label	very rare, postmarketing	
CC(N)Cc1ccccc1 (stereo not shown) [Amphetamine]		1.043%			
CN1CCc2cccc3c2[C@H]1Cc1ccc(O)c(O)c1-3 [Apomorphine]	0.4 nM	0.382%	not found on label	not found on label	
O=C1CCc2ccc(OCCCCN3CCN(c4cccc(Cl)c4Cl)CC3)cc2N1 [Aripiprazole]	11 nM	1.175%	on label	Postmarketing	
Cn1c(=O)c2c(ncn2C)n(C)c1=O [Caffeine]	23300 nM				Area.Under.Cross.Correlation Lower.TI [5]: 6.336; Area.Under.Cross.Correlation Upper.TI [5]: 111.5; Burst.Duration...Avg.(s. Lower.TI) [5]: -5.73; Burst.Duration...Avg.(s. Upper.TI) [5]: 16.22; Mean.Firing.Rate..Hz. Lower.TI [5]: 8.914; Mean.Firing.Rate..Hz. Upper.TI [5]: 94.17; Median.Mean.ISI Lower.TI [5]: -1.251; Median.Mean.ISI Upper.TI [5]: 10.27
NC(=O)N1c2ccccc2C=Cc2ccccc21 [Carbamazepine]	12100 nM	5.289%	not found on label	common	
C[C@@](Cc1ccc(O)c(O)c1)(NN)C(=O)O [Carbidopa]	550 nM	0.8032%	on label	no frequency information	
CN(C)CCCN1c2ccccc2Sc2ccc(Cl)cc21 [Chlorpromazine]	54 nM	1.468%	On label		
CN(C)CCCN1c2ccccc2CCc2ccc(Cl)cc21 [Clomipramine]	9 nM				
CN1CCN(C2=Nc3cc(Cl)ccc3Nc3ccccc32)CC1 [Clozapine]	70 nM				
COc1ccc2c3c1O[C@H]1[C@@H](O)C=C[C@H]4[C@@H](C2)N(C)CC[C@@]341 [Codeine]	880 nM				
CN1CCN(C(c2ccccc2)c2ccccc2)CC1 [Cyclizine]	105 nM	1.797%		no frequency information	
C[C@@H]1C[C@H]2[C@@H]3CCC4=CC(=O)C=C[C@]4(C)[C@@]3(F)[C@@H](O)C[C@]2(C)[C@@]1(O)C(=O)CO [Dexamethasone]	25 nM	0.5218%	On label	no frequency information	
C[C@]12N[C@H](Cc3ccccc31)c1ccccc12 [Dizocilpine (MK-801), Dizocilpine]					Area.Under.Cross.Correlation Lower.TI [5]: -94.33; Area.Under.Cross.Correlation Upper.TI [5]: -47.25; Burst.Duration...Avg.(s. Lower.TI) [5]: -41.38; Burst.Duration...Avg.(s. Upper.TI) [5]: 248.8; Mean.Firing.Rate..Hz. Lower.TI [5]: -92.35; Mean.Firing.Rate..Hz. Upper.TI [5]: -66.07; Median.Mean.ISI Lower.TI [5]: -38.05; Median.Mean.ISI Upper.TI [5]: 23.07
COc1cccc2c1C(=O)c1c(O)c3c(c(O)c1C2=O)C[C@@](O)(C(=O)CO)C[C@@H]3O[C@H]1C[C@H](N)[C@H](O)[C@H](C)O1 [Doxorubicin]	3990 nM	0.3099%	On label	postmarketing, uncommon	
COc1ccc(Cl)cc1[C@]1(F)C(=O)Nc2cc(C(F)(F)F)ccc21 [Flindokalner]	340 nM				
CN(C)CCCN1c2ccccc2CCc2ccccc21 [Imipramine]	53 nM	1.538%	On label		
NNC(=O)c1ccncc1 [Isoniazid]	57000 nM	0.676%	on label	no frequency information	

SMILES	Free Cmax highest [1]	Percentage seizures of total number of ADRs [2]	FDA prescription information at therapeutic dose (Convulsion/ Seizure/Lower the seizure threshold/withdrawal) [3]	SIDER ADR on-/off-label [4]	also measured
CC[C@@H](C(N)=O)N1CCCC1=O [Levetiracetam]	276350 nM	15.5539%	On label	2.38% - 6%	
Cc1ccc(F)c(NC(=O)Nc2ccc(-c3cccc4[nH]nc(N)c34)cc2)c1 [Linifanib]		0%			
O=C1N(c2ccccc2)c2ccccc2C1(Cc1ccncc1)Cc1ccncc1 [Linopirdine]	3000 nM				
CNCCCC12CCC(c3ccccc31)c1ccccc12 [Maprotiline]	73.3 nM	7.924%		no frequency information	
CC1CCN(CCCC(=O)c2ccc(F)cc2)CC1 [Melperone]	240 nM				
CC(=O)/N=c1/sc(S(N)(=O)=O)nn1C [Methazolamide]	20400 nM	0%	On label	no frequency information	
COC(=O)C(c1ccccc1)C1CCCCN1 (stereo not shown) [Methylphenidate]	165 nM		On label	postmarketing	
COc1c(N2C[C@@H]3CCCN[C@@H]3C2)c(F)cc2c(=O)c(C(=O)O)cn(C3CC3)c12 [Moxifloxacin]	8134 nM				
Cc1nccn1CC1CCc2c(c3ccccc3n2C)C1=O (stereo not shown) [Ondansetron]	51.3 nM	1.344%	on label	uncommon	
Cc1ccccc1C(OCCN(C)C)c1ccccc1 (stereo not shown) [Orphenadrine]	10 nM	0.6083%	not found on label	not found on label	
CC[C@@H]1C(=O)OC[C@@H]1Cc1cncn1C [Pilocarpine]	375 nM	0.1965%	not found on label	not found on label	
CC(CN1c2ccccc2Sc2ccccc21)N(C)C (stereo not shown) [Promethazine]	72 nM	1.639%	on label	no frequency information	
CC(C)NCC(O)COc1cccc2ccccc12 (stereo not shown) [Propranolol]	120 nM				
Cc1ncc(CO)c(CO)c1O [Pyridoxine]	280 nM	0.4851%	not found on label	not found on label	
CC(C)(C)NCC(O)c1ccc(O)c(CO)c1 (stereo not shown) [Salbutamol]	56 nM	0.3555%			
OC[C@@H](O)[C@@H](O)[C@H](O)[C@@H](O)CO [Sorbitol]		0.6135%	not found on label	no frequency information	
CC(C)(C)C(O)/C=C/c1ccc2c(c1)OCO2 (stereo not shown) [Stiripentol]	670 nM				
Cn1c(=O)c2[nH]cnc2n(C)c1=O [Theophylline]	26580 nM	4.2336%			
NC[C@H]1CC[C@H](C(=O)O)CC1 [Tranexamic Acid]	101250 nM	1.5%	On label	postmarketing	free Cmax concentration in man [1]: > 100000 nM
C[C@@H]([C@@H](O)c1ccc(O)cc1)N1CCC(O)(c2ccccc2)CC1 [Traxoprodil (CP-101606), Traxoprodil]	94 nM				
OC(CCN1CCCCC1)(c1ccccc1)C1CCCCC1 (stereo not shown) [Trihexyphenidyl]	24 nM	0.7979%	not found on label	not found on label	
CCCC(CCC)C(=O)O [Valproic acid]	92000 nM	4.854%	on label	not found on label	

— publication PMC11170107, “Development of a new hazard scoring system in primary neuronal cell cultures for drug-induced acute neuronal toxicity identification in early drug discovery” (Frontiers in Pharmacology, 2024)
